Reference: patent US12304910B2, “Janus kinase (JAK) family inhibitor, preparation of same, and applications thereof” (JIANGSU VCARE PHARMATECH CO., LTD., priority 2019, dated 2025)

Tests used:
[1] = Liver microsome test (metabolic stability); assay type: in vitro ADME, human; details: for Remaining % (60 min) / half-life at 1 μmol/L / microsomal CLint at 1 μmol/L: human liver microsomes 0.5 mg/mL protein, compound 1 μmol/L, 37° C.; for half-life at 1 μmol/L / microsomal CLint at 1 μmol/L: pH 7.4; for microsomal CLint at 1 μmol/L: read-out: Clint (μL/min/mg protein)
Description: In an incubation system with a total volume of 250 μL, an incubation solution of hum an liver microsomes containing 0.5 mg/mL protein was formulated with a 50 mmol/L PBS buffer (pH=7.4). Before the start of incubation, 2.5 μL of a 100 μmol/L compound to be tested was mixed with 197.5 μL of the above incubation buffer, pre-incubated for 5 min in a 37° C. water bath, and then added with 50 μL of a reducing coenzyme II solution (5 mmol/L) that was likewise pre-incubated for 5 min to start a reaction (in the reaction system, the protein content of liver microsomes from various species was 0.5 g/L, and the final concentration of the compound to be tested was 1 μmol/L), incubated in a 37° C. water bath with shaking, and taken out at 0, 5, 15, 30, and 60 min respectively. 600 μL of a methanol solution of mixed positive and negative internal standards with internal standards Terfenadine (positive ion internal standard, 25 ng/mL) and Tolbutamide (negative ion internal standard, 50 ng/mL) was immediately added to terminate the reaction. The incubation solution after termination was shaken for 2 min and centrifuged (4° C., 16000 r/min) for 10 min, and the supernatant was taken for LC-MS/MS detection to quantitatively analyze the remaining amount of the parent drug. (DMSO=0.1%).
The concentration of the compound at 0 mi incubation was regarded as 100%, and the concentrations at other incubation time points were converted into the remaining percentages. The natural logarithm of the remaining percentage at each time point was linearly regressed against the incubation time, and the slope k was calculated. According to the formula T1/2=−0.693/k, the in vitro half-life was calculated. Clearance in liver microsomes (CLint (μL/min/mg protein)=Ln (2)*1000/T1/2 (min/Protein Conc (mg/ml)).

JAK1 = JAK1 (Homo sapiens, UniProt P23458); assay: Kinase activity test (γ33P-ATP isotopic method), JAK1; assay type: biochemical; details: for IC50: 33P-ATP 10 μM, 2 h reaction; for activity in inhibiting the JAK1 kinase compared with Tofacitinib (in words): conclusion from Table 1
Chain of JAK1 (P23458 whole entry): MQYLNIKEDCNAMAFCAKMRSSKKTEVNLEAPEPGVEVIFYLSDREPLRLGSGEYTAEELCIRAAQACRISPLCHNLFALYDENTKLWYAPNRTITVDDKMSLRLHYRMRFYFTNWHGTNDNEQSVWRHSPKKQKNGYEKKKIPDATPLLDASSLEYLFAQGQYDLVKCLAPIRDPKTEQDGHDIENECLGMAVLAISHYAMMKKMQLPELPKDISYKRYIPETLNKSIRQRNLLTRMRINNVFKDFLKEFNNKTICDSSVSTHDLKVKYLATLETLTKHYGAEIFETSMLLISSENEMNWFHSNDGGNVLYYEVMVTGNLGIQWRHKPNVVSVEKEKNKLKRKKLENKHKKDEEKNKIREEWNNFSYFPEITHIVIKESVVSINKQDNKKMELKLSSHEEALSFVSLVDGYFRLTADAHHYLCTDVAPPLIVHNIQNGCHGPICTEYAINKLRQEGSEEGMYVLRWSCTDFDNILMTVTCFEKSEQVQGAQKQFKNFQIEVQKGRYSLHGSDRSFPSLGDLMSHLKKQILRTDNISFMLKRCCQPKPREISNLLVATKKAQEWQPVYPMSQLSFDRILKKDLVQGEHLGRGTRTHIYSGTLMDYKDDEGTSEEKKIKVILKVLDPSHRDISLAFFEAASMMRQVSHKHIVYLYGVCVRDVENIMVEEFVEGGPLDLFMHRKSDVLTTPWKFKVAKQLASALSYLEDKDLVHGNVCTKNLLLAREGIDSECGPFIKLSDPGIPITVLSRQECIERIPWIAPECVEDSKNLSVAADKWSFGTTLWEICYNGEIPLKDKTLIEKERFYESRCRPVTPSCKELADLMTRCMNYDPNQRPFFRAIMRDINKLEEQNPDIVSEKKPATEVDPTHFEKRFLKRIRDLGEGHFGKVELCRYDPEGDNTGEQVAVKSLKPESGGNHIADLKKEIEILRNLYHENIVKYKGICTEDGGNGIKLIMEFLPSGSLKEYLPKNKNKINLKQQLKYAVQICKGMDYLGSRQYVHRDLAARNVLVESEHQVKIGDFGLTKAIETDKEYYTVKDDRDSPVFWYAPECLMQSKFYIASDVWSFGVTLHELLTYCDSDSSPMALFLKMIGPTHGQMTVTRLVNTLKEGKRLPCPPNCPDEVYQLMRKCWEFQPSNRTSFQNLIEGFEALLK
Description: (§1) This experiment adopted a γ^33p-ATP isotopic test method to test the inhibitory effect of a compound on kinases JAK1, JAK2, JAK3 and TYK2, and obtained a half inhibitory concentration IC50 of the compound for inhibiting activity of the kinase.
(§2) 20 mM 4-hydroxyethylpiperazine ethanesulfonic acid buffer (Hepes, pH 7.5), 10 mM magnesium chloride (MgCl2), 1 mM ethylene glycol diethyl ether diamine tetraacetic acid (EGTA), 0.02% dodecyl polyethylene glycol ether (Brij35), 0.02 mg/ml bovine serum albumin (BSA), 0.1 mM sodium vanadate (Na3VO4), 2 mM dithiothreitol (DTT), and 1% dimethylsulfoxide (DMSO).
(§3) A compound is dissolved with 100% DMSO to a specific concentration, and then subjected to gradient dilution by an automatic sampling device to obtain the samples to be tested with different concentrations (DMSO solutions).
(§4) 3.1 diluting the reaction substrate with the basic reaction buffer;
(§5) 3.2 adding the kinase into the substrate solution, and gently mixing well;
(§6) 3.3 adding, by the automatic sampling system, the 100% DMSO diluted compounds with different concentrations into the kinase solution, and incubating for 20 min at room temperature; and
(§7) 3.4 adding ^33p-ATP (10 μM, 10 μCi/μl) at room temperature to initiate the kinase reaction for a duration of 2 h.
(§8) The unreacted ATP and the reaction-generated […] in the reaction were removed by an ion exchange filtering system, and then the amount of radioactivity of ^33p isotope in the substrate was detected.
(§9) According to the amount of radioactivity, the kinase activities in the systems added with the inhibitors of different concentrations were calculated, to obtain the inhibitors' effects of the compounds of different concentrations on the kinase activity; and fitting was performed with graphpad prism to obtain the inhibitory IC50 values of the compounds.

TYK2 = TYK2 (Homo sapiens, UniProt P29597); assay: Kinase activity test (γ33P-ATP isotopic method), TYK2; assay type: biochemical; details: 33P-ATP 10 μM, 2 h reaction
Chain of TYK2 (P29597 whole entry): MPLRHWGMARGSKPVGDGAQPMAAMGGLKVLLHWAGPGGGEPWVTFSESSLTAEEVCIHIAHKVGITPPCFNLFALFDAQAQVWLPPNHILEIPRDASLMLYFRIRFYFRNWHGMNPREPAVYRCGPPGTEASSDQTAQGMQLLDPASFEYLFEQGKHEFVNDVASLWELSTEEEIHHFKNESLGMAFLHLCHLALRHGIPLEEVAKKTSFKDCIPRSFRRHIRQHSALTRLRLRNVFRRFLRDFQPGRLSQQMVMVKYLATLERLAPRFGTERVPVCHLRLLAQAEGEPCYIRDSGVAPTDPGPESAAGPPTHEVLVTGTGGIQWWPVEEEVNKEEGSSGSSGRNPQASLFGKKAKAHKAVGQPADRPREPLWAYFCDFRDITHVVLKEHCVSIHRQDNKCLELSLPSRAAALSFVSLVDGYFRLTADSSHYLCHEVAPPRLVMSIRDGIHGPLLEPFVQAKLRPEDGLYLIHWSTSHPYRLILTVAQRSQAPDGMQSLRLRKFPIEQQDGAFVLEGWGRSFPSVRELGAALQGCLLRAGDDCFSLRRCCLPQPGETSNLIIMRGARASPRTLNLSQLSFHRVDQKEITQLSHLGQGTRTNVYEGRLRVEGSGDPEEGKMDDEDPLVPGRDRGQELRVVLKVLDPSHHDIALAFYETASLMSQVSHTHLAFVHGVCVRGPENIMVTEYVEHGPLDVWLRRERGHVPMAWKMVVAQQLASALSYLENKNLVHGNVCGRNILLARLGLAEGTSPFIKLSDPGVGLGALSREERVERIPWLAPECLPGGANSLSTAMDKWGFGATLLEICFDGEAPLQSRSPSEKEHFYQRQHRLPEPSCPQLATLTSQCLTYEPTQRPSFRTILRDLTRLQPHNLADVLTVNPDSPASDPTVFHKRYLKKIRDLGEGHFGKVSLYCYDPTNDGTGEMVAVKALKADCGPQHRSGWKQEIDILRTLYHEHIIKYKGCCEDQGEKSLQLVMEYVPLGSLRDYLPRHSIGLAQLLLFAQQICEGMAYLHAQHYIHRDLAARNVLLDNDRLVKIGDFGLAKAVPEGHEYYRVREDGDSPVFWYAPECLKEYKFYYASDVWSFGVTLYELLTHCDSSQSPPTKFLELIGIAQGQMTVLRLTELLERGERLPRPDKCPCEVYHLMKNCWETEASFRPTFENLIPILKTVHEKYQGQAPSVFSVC
Description: as §1, §2, §3, §4, §5, §6, §7, §8, §9

[2] = test system: DSS induced mouse ulcerative colitis model; assay: Efficacy test in DSS induced mouse ulcerative colitis model; assay type: in vivo; details: for DAI score on day 8: once a day, mouse DSS model, DAI range 0-4
Description: Mice of 6-7 weeks old were randomly grouped, 6 mice per group. Purified water was provided ad libitum to the mice in a negative control group, and a 2% solution of dextran sulfate sodium (DSS) was provided ad libitum to the mice in other groups, for 7 consecutive days. During the modeling, medication was given according to the groups, once a day for 7 days (the treatment groups and the mouse numbers can be adjusted according to the specific situation). Within 8-10 days later, the DSS-containing water was replaced with purified water, provided ad libitum to the mice. The normal administration continued for 3 days.
From the first day of administration, the general conditions such as metal state, eating, drinking and activities of the mice were respectively observed every day, the mice were weighed every day, and the animal stools were collected, evaluated for their traits and subjected to the occult blood test. The disease activity index (DAI) of experimental animals within 1-10 days were comprehensively assessed.
Scoring was performed according to the above-mentioned standards. The disease activity index (DAI) of each mouse was obtained by summing the scores of weight loss, stool trait and occult blood condition, to evaluate the disease activity. DAI=(score of weight loss+score of stool trait+score of bloody stool)/3, ranging from 0-4.
The experimental data was processed statistically, and the data are all expressed as mean±SD or mean±SME. The SPSS13.0 software was used for statistical analysis, and the differences among the groups were compared with t test (equal variance) or t′ test (unequal variance).

JAK2 = JAK2 (Homo sapiens, UniProt O60674); assay: Kinase activity test (γ33P-ATP isotopic method), JAK2; assay type: biochemical; details: 33P-ATP 10 μM, 2 h reaction
Chain of JAK2 (O60674 whole entry): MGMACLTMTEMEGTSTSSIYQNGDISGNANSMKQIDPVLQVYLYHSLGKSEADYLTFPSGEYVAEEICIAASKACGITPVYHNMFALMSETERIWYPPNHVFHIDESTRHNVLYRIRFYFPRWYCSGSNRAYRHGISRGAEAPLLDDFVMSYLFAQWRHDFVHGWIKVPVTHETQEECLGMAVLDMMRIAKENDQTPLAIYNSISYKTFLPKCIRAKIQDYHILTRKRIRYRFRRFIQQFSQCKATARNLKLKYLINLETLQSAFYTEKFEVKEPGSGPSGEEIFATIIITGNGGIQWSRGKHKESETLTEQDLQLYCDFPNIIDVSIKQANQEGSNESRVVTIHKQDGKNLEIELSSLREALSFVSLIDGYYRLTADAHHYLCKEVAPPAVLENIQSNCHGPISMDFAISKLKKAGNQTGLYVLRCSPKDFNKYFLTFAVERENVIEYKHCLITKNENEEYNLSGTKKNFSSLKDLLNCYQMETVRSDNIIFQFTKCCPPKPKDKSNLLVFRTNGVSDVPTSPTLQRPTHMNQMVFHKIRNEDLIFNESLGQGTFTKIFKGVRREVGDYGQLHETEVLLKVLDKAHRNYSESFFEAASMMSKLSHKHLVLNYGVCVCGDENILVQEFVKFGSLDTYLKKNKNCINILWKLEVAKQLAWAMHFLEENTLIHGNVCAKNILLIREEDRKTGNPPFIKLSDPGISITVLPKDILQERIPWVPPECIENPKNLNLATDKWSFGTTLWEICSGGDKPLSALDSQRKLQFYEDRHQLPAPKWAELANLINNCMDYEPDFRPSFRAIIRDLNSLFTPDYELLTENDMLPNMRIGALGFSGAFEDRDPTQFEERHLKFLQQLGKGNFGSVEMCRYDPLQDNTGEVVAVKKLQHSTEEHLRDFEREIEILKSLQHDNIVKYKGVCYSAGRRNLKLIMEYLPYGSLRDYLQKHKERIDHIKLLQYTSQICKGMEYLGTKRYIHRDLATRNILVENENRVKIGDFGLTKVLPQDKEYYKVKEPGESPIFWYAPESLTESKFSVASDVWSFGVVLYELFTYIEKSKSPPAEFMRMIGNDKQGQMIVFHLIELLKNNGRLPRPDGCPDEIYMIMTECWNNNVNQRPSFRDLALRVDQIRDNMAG
Description: as §1, §2, §3, §4, §5, §6, §7, §8, §9

JAK3 = target: T1, JAK3 (Homo sapiens, UniProt P52333); assay: Kinase activity test (γ33P-ATP isotopic method), JAK3; assay type: biochemical; details: 33P-ATP 10 μM, 2 h reaction
T1 sequence (P52333 1-1124): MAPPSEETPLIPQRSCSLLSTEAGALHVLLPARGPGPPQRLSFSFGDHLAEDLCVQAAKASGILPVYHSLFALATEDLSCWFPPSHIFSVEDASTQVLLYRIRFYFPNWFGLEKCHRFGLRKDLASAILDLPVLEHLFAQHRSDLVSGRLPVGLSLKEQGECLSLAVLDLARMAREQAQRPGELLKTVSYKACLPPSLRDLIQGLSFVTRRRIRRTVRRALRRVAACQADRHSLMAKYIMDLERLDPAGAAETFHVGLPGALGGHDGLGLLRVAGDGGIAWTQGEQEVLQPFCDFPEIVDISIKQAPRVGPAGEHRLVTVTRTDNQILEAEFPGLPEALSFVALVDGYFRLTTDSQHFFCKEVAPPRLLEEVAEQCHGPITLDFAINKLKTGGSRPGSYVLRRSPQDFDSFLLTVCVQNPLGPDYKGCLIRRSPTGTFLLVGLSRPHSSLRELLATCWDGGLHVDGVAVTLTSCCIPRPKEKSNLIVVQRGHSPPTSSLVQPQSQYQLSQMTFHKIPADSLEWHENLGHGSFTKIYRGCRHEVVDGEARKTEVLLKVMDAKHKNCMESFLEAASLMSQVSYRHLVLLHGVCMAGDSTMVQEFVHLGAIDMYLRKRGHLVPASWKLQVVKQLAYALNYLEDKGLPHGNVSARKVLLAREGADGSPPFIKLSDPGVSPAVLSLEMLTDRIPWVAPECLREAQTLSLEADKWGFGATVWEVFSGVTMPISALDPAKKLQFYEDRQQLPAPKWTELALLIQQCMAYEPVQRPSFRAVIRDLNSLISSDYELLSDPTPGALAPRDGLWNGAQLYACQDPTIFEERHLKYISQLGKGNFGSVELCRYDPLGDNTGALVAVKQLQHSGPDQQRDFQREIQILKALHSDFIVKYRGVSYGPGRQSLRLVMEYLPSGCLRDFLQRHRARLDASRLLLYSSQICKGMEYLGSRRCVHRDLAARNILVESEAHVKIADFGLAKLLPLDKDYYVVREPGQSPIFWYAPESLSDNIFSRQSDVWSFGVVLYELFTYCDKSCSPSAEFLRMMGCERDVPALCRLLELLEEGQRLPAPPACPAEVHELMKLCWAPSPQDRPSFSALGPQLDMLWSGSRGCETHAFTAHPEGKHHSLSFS
Description: as §1, §2, §3, §4, §5, §6, §7, §8, §9

| Remaining % (60 min) [1] | metabolic stability in liver microsomes (in words) ([1]; human liver microsomes, conclusion from Table 2) | half-life at 1 μmol/L [1] | microsomal CLint at 1 μmol/L [1] | IC50 (JAK1) | IC50 (TYK2) | IC50 (JAK2) | IC50 (JAK3) | Compound | activity in inhibiting the JAK1 kinase compared with Tofacitinib (in words) (JAK1) | DAI score on day 8 ([2]; 5 mg/kg group) | DAI score on day 8 ([2]; 15 mg/kg group) | effect on DSS induced enteritis in mice (in words) ([2]; relatively low dose) |
| --- | --- | --- | --- | --- | --- | --- | --- | --- | --- | --- | --- | --- |
| – | – | – | – | 1.1 nM | 19 nM | 16.7 nM | 5.97 nM | CC(C)(C)OC(=O)N1CC2CN(Nc3c(C(N)=O)cnc4[nH]ccc34)CC2C1 (stereo not shown) [Example 12] | – | – | – | – |
| 80.7% | – | 3.3 h | 7 µL/min/mg | – | – | – | – | C[C@@H]1CCN(C(=O)CC#N)C[C@@H]1N(C)c1ncnc2[nH]ccc12 [Tofacitinib, reference compound] | – | 3.5 | – | – |

More lines, now with the values behind:

| Compound | Remaining % (60 min) [1] | metabolic stability in liver microsomes (in words) ([1]; human liver microsomes, conclusion from Table 2) | half-life at 1 μmol/L [1] | microsomal CLint at 1 μmol/L [1] | IC50 (JAK1) | IC50 (TYK2) | IC50 (JAK2) | IC50 (JAK3) | activity in inhibiting the JAK1 kinase compared with Tofacitinib (in words) (JAK1) | DAI score on day 8 ([2]; 5 mg/kg group) | DAI score on day 8 ([2]; 15 mg/kg group) | effect on DSS induced enteritis in mice (in words) ([2]; relatively low dose) |
| --- | --- | --- | --- | --- | --- | --- | --- | --- | --- | --- | --- | --- |
| NC(=O)c1cnc2[nH]ccc2c1NN1CCC[C@H](C(=O)NCC(F)(F)F)C1 [Example 1, (S)-4-(3-(2,2,2-trifluoroethylcarbamoyl)piperidine-1-amino)-1H-7-azaindole-5-carboxamide] | 59.0% | excellent metabolic activity in liver | 1.36 h | 17 µL/min/mg | 0.29 nM | 3.28 nM | 2.26 nM | 2.7 nM | higher activity in inhibiting the JAK1 kinase than the positive drug control Tofacitinib | 2.8 | 2 | significant effect in inhibiting the DSS induced enteritis in mice |
| NC(=O)c1cnc2[nH]ccc2c1NN1CCC[C@@H](C(=O)NCC(F)(F)F)C1 [Example 3, (R)-4-(3-(2,2,2-trifluoroethylcarbamoyl)piperidine-1-amino)-1H-7-azaindole-5-carboxamide] | – | – | – | – | 0.41 nM | 9.93 nM | 11.6 nM | 8.69 nM | higher activity in inhibiting the JAK1 kinase than the positive drug control Tofacitinib | – | – | – |
| CCCNC(=O)[C@H]1CCCN(Nc2c(C(N)=O)cnc3[nH]ccc23)C1 [Example 5, (S)-4-(3-(n-propylcarbamoyl)piperidine-1-amino)-1H-7-azaindole-5-carboxamide] | – | – | – | – | 1.19 nM | 34.7 nM | 54.8 nM | 15.9 nM | – | – | – | – |
| N#CCNC(=O)[C@H]1CCCN(Nc2c(C(N)=O)cnc3[nH]ccc23)C1 [Example 7] | – | – | – | – | 0.39 nM | 1.98 nM | 1.32 nM | 0.71 nM | higher activity in inhibiting the JAK1 kinase than the positive drug control Tofacitinib | – | – | – |
